Data as given in PubChem BioAssay AID248 (DTP/NCI, 2004).
Several values for one entry are separate records, joined by “and”; a condition that tells them apart may be missing. Equal values may be shown once. Toxic doses and inconclusive results are not listed. No stated cut-off is given here; in the data, active means T/C of 150% or more; inactive means T/C below 125%.

Test system: L1210 leukemia ip in BDF1 mice, survival T/C
Experiment: NCI In Vivo Anticancer Drug Screen. Data for tumor model L1210 Leukemia (intraperitoneal) in B6D2F1 (BDF1) mice
Conditions: higher = longer survival
Procedure, shortened: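 Tumor was transplanted into mice, which were then dosed with test compound or vehicle alone. Survival was recorded for each group, and the treated figure was expressed relative to the control figure.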

[1] = endpoint: mean survival time, dose: 100.0 mg/kg/injection, schedule: Q01DX001 (ip), vehicle: Klucel (hydroxypropylcellulose) (HPC)
[2] = endpoint: mean survival time, dose: 200.0 mg/kg/injection, schedule: Q01DX001 (ip), vehicle: Klucel (hydroxypropylcellulose) (HPC)
[3] = endpoint: mean survival time, dose: 100.0 mg/kg/injection, schedule: Q01DX009 (ip), vehicle: saline with Tween-80

Measured: T/C

CC[C@@H](c1ccc(O)cc1)[C@@H](CC)c1ccc(O)cc1
inactive: endpoint: mean survival time, dose: 25.0 mg/kg/injection, schedule: Q01DX009 (sc), vehicle: steriod suspending solution 100 % of control and 108 % of control | endpoint: mean survival time, dose: 25.0 mg/kg/injection, schedule: Q01DX010 (sc), vehicle: steriod suspending solution 101 % of control | endpoint: mean survival time, dose: 50.0 mg/kg/injection, schedule: Q01DX009 (sc), vehicle: steriod suspending solution 96 % of control and 100 % of control | endpoint: mean survival time, dose: 50.0 mg/kg/injection, schedule: Q01DX010 (sc), vehicle: steriod suspending solution 95 % of control | endpoint: mean survival time, dose: 100.0 mg/kg/injection, schedule: Q01DX009 (sc), vehicle: steriod suspending solution 96 % of control and 102 % of control | endpoint: mean survival time, dose: 100.0 mg/kg/injection, schedule: Q01DX010 (sc), vehicle: steriod suspending solution 98 % of control | endpoint: mean survival time, dose: 125.0 mg/kg/injection, schedule: Q01DX Z (ip), vehicle: carboxymethylcellulose (CMC) 91 % of control | endpoint: mean survival time, dose: 200.0 mg/kg/injection, schedule: Q01DX009 (sc), vehicle: steriod suspending solution 93 % of control and 99 % of control | endpoint: mean survival time, dose: 200.0 mg/kg/injection, schedule: Q01DX010 (sc), vehicle: steriod suspending solution 95 % of control | endpoint: median survival time, dose: 25.0 mg/kg/injection, schedule: Q01DX009 (sc), vehicle: steriod suspending solution 100 % of control | endpoint: median survival time, dose: 50.0 mg/kg/injection, schedule: Q01DX009 (sc), vehicle: steriod suspending solution 100 % of control and 111 % of control | endpoint: median survival time, dose: 100.0 mg/kg/injection, schedule: Q01DX009 (sc), vehicle: steriod suspending solution 100 % of control and 111 % of control | endpoint: median survival time, dose: 200.0 mg/kg/injection, schedule: Q01DX009 (sc), vehicle: steriod suspending solution 100 % of control

CC(C)C(C(=O)c1ccccc1)C(c1ccccc1)c1ccccc1 (stereo not given)
inactive: endpoint: mean survival time, dose: 100.0 mg/kg/injection, schedule: Q01DX009 (ip), vehicle: other 103 % of control | endpoint: mean survival time, dose: 200.0 mg/kg/injection, schedule: Q01DX009 (ip), vehicle: other 90 % of control | endpoint: mean survival time, dose: 400.0 mg/kg/injection, schedule: Q01DX009 (ip), vehicle: other 103 % of control

COC(=O)C1ON(C(=O)c2ccccc2)C(C)C(O)C1I (stereo not given)
inactive: endpoint: mean survival time, dose: 100.0 mg/kg/injection, schedule: Q04DX003 (ip), vehicle: Klucel (hydroxypropylcellulose) (HPC) 96 % of control | endpoint: mean survival time, dose: 200.0 mg/kg/injection, schedule: Q04DX003 (ip), vehicle: Klucel (hydroxypropylcellulose) (HPC) 97 % of control | endpoint: mean survival time, dose: 400.0 mg/kg/injection, schedule: Q04DX003 (ip), vehicle: Klucel (hydroxypropylcellulose) (HPC) 92 % of control

CO[N+](=O)c1cc(C(C)(C)C)c([O-])c(C(C)(C)C)c1
inactive: [1] 88 % of control | [2] 88 % of control | endpoint: mean survival time, dose: 400.0 mg/kg/injection, schedule: Q01DX001 (ip), vehicle: Klucel (hydroxypropylcellulose) (HPC) 92 % of control

O=C1c2ccccc2C(=O)N1CNc1ccc2c(c1)OCO2
inactive: endpoint: mean survival time, dose: 50.0 mg/kg/injection, schedule: Q01DX009 (ip), vehicle: saline with Tween-80 108 % of control | [3] 97 % of control | endpoint: mean survival time, dose: 200.0 mg/kg/injection, schedule: Q01DX009 (ip), vehicle: saline with Tween-80 90 % of control

CCN(CC)C1=C(Cl)C(=O)C(=O)c2cccnc21
inactive: endpoint: mean survival time, dose: 18.8 mg/kg/injection, schedule: Q04DX003 (ip), vehicle: saline 97 % of control | endpoint: mean survival time, dose: 37.5 mg/kg/injection, schedule: Q04DX003 (ip), vehicle: saline 103 % of control | endpoint: mean survival time, dose: 75.0 mg/kg/injection, schedule: Q01DX001 (ip), vehicle: saline 97 % of control

COC(=O)CCCN1C(=O)c2ccccc2C1=O
inactive: endpoint: mean survival time, dose: 100.0 mg/kg/injection, schedule: Q04DX002 (ip), vehicle: carboxymethylcellulose (CMC) 102 % of control and 87 % of control | endpoint: mean survival time, dose: 100.0 mg/kg/injection, schedule: Q04DX003 (ip), vehicle: carboxymethylcellulose (CMC) 94 % of control | endpoint: mean survival time, dose: 200.0 mg/kg/injection, schedule: Q04DX002 (ip), vehicle: carboxymethylcellulose (CMC) 97 % of control and 91 % of control | endpoint: mean survival time, dose: 200.0 mg/kg/injection, schedule: Q04DX003 (ip), vehicle: carboxymethylcellulose (CMC) 92 % of control | endpoint: mean survival time, dose: 400.0 mg/kg/injection, schedule: Q04DX002 (ip), vehicle: carboxymethylcellulose (CMC) 93 % of control and 90 % of control | endpoint: mean survival time, dose: 400.0 mg/kg/injection, schedule: Q04DX003 (ip), vehicle: carboxymethylcellulose (CMC) 99 % of control

O=C(CCCCCCCCC(=O)NCC1(c2ccccc2)CCNCC1)NCC1(c2ccccc2)CCNCC1
inactive: endpoint: mean survival time, dose: 1.25 mg/kg/injection, schedule: Q01DX Z (ip), vehicle: saline 89 % of control | endpoint: mean survival time, dose: 2.5 mg/kg/injection, schedule: Q01DX Z (ip), vehicle: saline 88 % of control | endpoint: mean survival time, dose: 10.0 mg/kg/injection, schedule: Q01DX Z (ip), vehicle: saline 97 % of control and 88 % of control | endpoint: mean survival time, dose: 30.0 mg/kg/injection, schedule: Q01DX Z (ip), vehicle: saline 87 % of control

O=C1NC(=O)C(CCI)(CCI)C(=O)N1
inactive: endpoint: mean survival time, dose: 100.0 mg/kg/injection, schedule: Q01DX001 (ip), vehicle: carboxymethylcellulose (CMC) 103 % of control | endpoint: mean survival time, dose: 200.0 mg/kg/injection, schedule: Q01DX001 (ip), vehicle: carboxymethylcellulose (CMC) 98 % of control | endpoint: mean survival time, dose: 400.0 mg/kg/injection, schedule: Q01DX001 (ip), vehicle: carboxymethylcellulose (CMC) 109 % of control

CN(C)CCN1C(=O)c2ccc3c4c(ccc(c24)C1=O)C(=O)N(CCN(C)C)C3=O
inactive: endpoint: mean survival time, dose: 50.0 mg/kg/injection, schedule: Q01DX001 (ip), vehicle: Klucel (hydroxypropylcellulose) (HPC) 96 % of control | [1] 94 % of control | [2] 89 % of control

Clc1ccc(P(c2ccc(Cl)cc2)c2ccc(Cl)cc2)cc1
inactive: [3] 87 % of control | endpoint: mean survival time, dose: 100.0 mg/kg/injection, schedule: Q04DX003 (ip), vehicle: saline with Tween-80 98 % of control | endpoint: mean survival time, dose: 200.0 mg/kg/injection, schedule: Q04DX003 (ip), vehicle: saline with Tween-80 95 % of control | endpoint: mean survival time, dose: 400.0 mg/kg/injection, schedule: Q04DX003 (ip), vehicle: saline with Tween-80 97 % of control

O=C(O)Cc1c(O)ccc2ccccc12
inactive: endpoint: mean survival time, dose: 100.0 mg/kg/injection, schedule: Q01DX009 (ip), vehicle: gum acacia 92 % of control | endpoint: mean survival time, dose: 100.0 mg/kg/injection, schedule: Q04DX003 (ip), vehicle: gum acacia 97 % of control | endpoint: mean survival time, dose: 200.0 mg/kg/injection, schedule: Q01DX009 (ip), vehicle: gum acacia 90 % of control | endpoint: mean survival time, dose: 200.0 mg/kg/injection, schedule: Q04DX003 (ip), vehicle: gum acacia 92 % of control | endpoint: mean survival time, dose: 400.0 mg/kg/injection, schedule: Q01DX009 (ip), vehicle: gum acacia 98 % of control | endpoint: mean survival time, dose: 400.0 mg/kg/injection, schedule: Q04DX003 (ip), vehicle: gum acacia 90 % of control

CCOC(=O)c1cc(Br)c(O)c(Br)c1
inactive: endpoint: mean survival time, dose: 50.0 mg/kg/injection, schedule: Q01DX009 (ip), vehicle: Klucel (hydroxypropylcellulose) (HPC) 95 % of control | endpoint: mean survival time, dose: 100.0 mg/kg/injection, schedule: Q01DX009 (ip), vehicle: Klucel (hydroxypropylcellulose) (HPC) 91 % of control

N[C@@H](Cc1ccc(O)c(O)c1)C(=O)O
inactive: endpoint: mean survival time, dose: 25.0 mg/kg/injection, schedule: Q01DX009 (ip), vehicle: saline 101 % of control | endpoint: mean survival time, dose: 25.0 mg/kg/injection, schedule: Q04DX003 (ip), vehicle: saline 94 % of control | endpoint: mean survival time, dose: 50.0 mg/kg/injection, schedule: Q01DX001 (ip), vehicle: saline 87 % of control | endpoint: mean survival time, dose: 50.0 mg/kg/injection, schedule: Q01DX009 (ip), vehicle: saline 100 % of control and 105 % of control | endpoint: mean survival time, dose: 50.0 mg/kg/injection, schedule: Q04DX003 (ip), vehicle: saline 103 % of control and 105 % of control | endpoint: mean survival time, dose: 100.0 mg/kg/injection, schedule: Q01DX001 (ip), vehicle: saline 94 % of control | endpoint: mean survival time, dose: 100.0 mg/kg/injection, schedule: Q01DX009 (ip), vehicle: saline 92 % of control and 97 % of control | endpoint: mean survival time, dose: 100.0 mg/kg/injection, schedule: Q04DX003 (ip), vehicle: saline 110 % of control | endpoint: mean survival time, dose: 200.0 mg/kg/injection, schedule: Q01DX001 (ip), vehicle: saline 113 % of control | endpoint: mean survival time, dose: 200.0 mg/kg/injection, schedule: Q01DX009 (ip), vehicle: saline 97 % of control and 105 % of control | endpoint: mean survival time, dose: 200.0 mg/kg/injection, schedule: Q04DX003 (ip), vehicle: saline 98 % of control and 105 % of control | endpoint: mean survival time, dose: 400.0 mg/kg/injection, schedule: Q01DX001 (ip), vehicle: saline 94 % of control | endpoint: mean survival time, dose: 400.0 mg/kg/injection, schedule: Q01DX009 (ip), vehicle: saline 108 % of control and 112 % of control | endpoint: mean survival time, dose: 400.0 mg/kg/injection, schedule: Q04DX003 (ip), vehicle: saline 94 % of control and 97 % of control
